For data set [1] the following is noted: cited from earlier work; for Human In Vivo Conc: Table 8.
Data set [2] concerns cochlear progenitor cells (Lgr5+). Description: Lgr5 cell expansion: quantification of cell proliferation, expansion and enrichment (flow cytometry / Celigo imaging). Conditions: for enrichment of Lgr5+ progenitor cells / proliferation of Lgr5+ progenitor cells: TAZ activator 10 μM combined with Wnt agonist CHIR99021 (4 μM). Format: cell-based, mice. How it is done: Neonatal Lgr5-EGFP-IRES-Cre-ER mice (The Jackson Laboratory, strain 8875) were used to analyze the effects of small molecules on cochlear stem cell expansion (see Barker et al., Nature 449, 1003-7 (2007). This strain allowed for visualization and quantification of EGFP cells.
All animal studies were conducted under an approved institutional protocol per National Institutes of Health guidelines. Using neonatal animals, cochleae were dissected and the organ of Corti (sensory epithelium) was separated from the stria vascularis (ion transport epithelium) and the modiolus (nerve tissue). Epithelia were then collected and treated with TrypLE for 15-20 minutes to obtain single cells. The cells were then filtered ([…]) and suspended in a Matrigel (Corning) dome for 3D culture seeded at 0.5 cochlea per well.
Expansion of Lgr5 Cells: Cells were cultured in a 3D system and bathed in a serum free 1:1 mixture of DMEM and F12, supplemented with Glutamax (GIBCO), N2, B27 (Invitrogen), EGF (50 ng/mL; Chemicon), bFGF (50 ng/mL; Chemicon), IGF-1 (50 ng/mL; Chemicon), and small molecules for seven days. Media was changed every other day. Treatments were run in triplicate or quadruplicate.
Quantification of Cell Proliferation: Lgr5 cells were quantified after 7-10 days. Cell colonies were dissociated into single cells using TrypLE. The cells were then stained with propidium iodide (PI) and analyzed using a flow cytometer to count Lgr5-EGFP cells. The percentage of viable Lgr5 cells was plotted against the concentration in GraphPad Prism.
Organ of Corti are dissected from Lgr5 GFP(+) mice and dissociated as single cells as described above. Background media contains the same supplements and growth factors at the same concentrations as described above. Assays for image quantification are run in 96 well black plates with clear bottom with cells embedded in 50% Matrigel at cell density of 500 k cells/mL with 50 uL applied to each well. Cells are cultured for 7 days, with media change every 3-4 days. After 7 days of exposure to experimental conditions (e.g. small molecules), media is then removed from culture and replaced with media containing Hoescht at a 1:2000 dilution for a final concentration of 5 ug/mL (200 uL/well). The plate is then placed in a cell culture incubator at 37C for 1 hr. The media containing Hoescht is then removed and 200 uL/well of Cell Recovery Solution is added. The plate is then incubated on a plastic-wrapped (e.g. Saran wrap) CoolRack™ on ice for 80 minutes. Next, the plate is centrifuged for 5 minutes at 2300 RPMs (Beckman Coulter Allegra 6R centrifuge; GH 3.8A plate rotor; ambient temperature). Cells are then imaged on Celigo using 3 channels for brightfield, blue (Hoescht), and green (Lgr5 GFP). Proliferated cell colonies are captured as summed objects in the blue channel and the green channel. The green Lgr5 GFP(+) cell colonies are quantified for total GFP(+) cell area, while the blue hoescht stained colonies are quantified as total cell area. The % GFP(+) Cell Area is calculated using the total GFP(+) cell area divided by the total cell area multiplied by 100. All results are compiled and utilized to determine the effects of experimental conditions (e.g. small molecules) on the expansion and enrichment of the Lgr5 cell population.
(In flow cytometry, cells or beads pass a laser one at a time.)

Data set [3] deals with Lgr5 GFP(+) cochlear progenitor cells. The data set is described as follows: Lgr5+ Assay / Stem Cell Proliferation Assay: proliferation and enrichment of Lgr5 GFP(+) cochlear progenitor cells. It counts as cell-based. From the text:
FIG. 1A is a graph depicting that the TAZ activator IBS008738 enhances Lgr5 GFP(+) progenitor cell proliferation when combined with CHIR in a background of growth factors. The y-axis depicts Lgr5 GFP(+) cell count and the x-axis depicts control conditions (background growth factors plus CHIR (EFI-C) or CHIR and VPA (EFI-CV)) versus CHIR+IBS008738 (EFI-C-IBS).
The y-axis depicts Lgr5 GFP(+) cell area and the x-axis depicts concentration of FHZ-000706.
FIG. 4A is a graph depicting that the TAZ activator FHZ-000706 enhances Lgr5 GFP(+) progenitor cell proliferation when combined with CHIR in a background of growth factors compared to CHIR alone.
The TAZ activator and the Wnt agonist (optionally in combination with an epigenetic agent) is capable of (i) forming a proliferation assay final cell population from a proliferation assay initial cell population over a proliferation assay time period in a stem cell proliferation assay, and/or (ii) forming a differentiation assay final cell population from a differentiation assay initial cell population over a differentiation assay time period in a Stem Cell differentiation assay wherein: (a) the proliferation assay initial cell population has (i) a Proliferation assay initial number of total cells, (ii) a proliferation assay initial number of Lgr5+ cells, (iii) a proliferation assay initial number of hair cells, (iv) a proliferation assay initial Lgr5+ cell fraction that equals the ratio of the proliferation assay initial number of Lgr5+ cells to the proliferation assay initial number of total cells, and (v) a proliferation assay initial hair cell fraction that equals the ratio of the proliferation assay initial number of hair cells to the proliferation assay initial number of total cells; (b) the proliferation assay final cell population has (i) a proliferation assay final number of total cells, (ii) a proliferation assay final number of Lgr5+ cells, (iii) a proliferation assay final number of hair cells, (iv) a proliferation assay final Lgr5+ cell fraction that equals the ratio of the proliferation assay final number of Lgr5+ cells to the proliferation assay final number of total cells and (v) a proliferation assay final hair cell fraction that equals the ratio of the proliferation assay final number of hair cells to the proliferation assay final number of total cells; (c) the differentiation assay initial cell population has (i) a differentiation assay initial number of total cells, (ii) a differentiation assay initial number of Lgr5+ cells, (iii) a differentiation assay initial number of hair cells, (iv) a differentiation assay initial Lgr5+ cell fraction that equals the ratio of the differentiation assay initial number of Lgr5+ cells to the differentiation assay initial number of total cells, and (v) a differentiation assay initial hair cell fraction that equals the ratio of the differentiation assay initial number of hair cells to the differentiation assay initial number of total cells; (d) the differentiation assay final cell population has (i) a differentiation assay final number of total cells, (ii) a differentiation assay final number of Lgr5+ cells, (iii) a differentiation assay final number of hair cells, (iv) a differentiation assay final Lgr5+ cell fraction that equals the ratio of the differentiation assay final number of Lgr5+ cells to the differentiation assay final number of total cells, and (v) a differentiation assay final hair cell fraction that equals the ratio of the differentiation assay final number of hair cells to the differentiation assay final number of total cells; (e) the proliferation assay final number of Lgr5+ cells exceeds the proliferation assay initial number of Lgr5+ cells by a factor of at least 10; and/or (f) the differentiation assay final number of hair cells is a non-zero number.

For data set [4], the target named is GSK-3 alpha (Homo sapiens, UniProt P49840). As to conditions: Table 2; kind of potency not given; cited from earlier work.
Data set [5] relates to HDAC. Conditions: cited from earlier work.
Data set [6] deals with TAZ (Homo sapiens, UniProt Q9GZV5). Conditions: Table 1, TAZ activators, literature cell concentration; cited from earlier work.
The target of data set [7] is DOT1L (Homo sapiens, UniProt Q8TEK3). As to conditions: DOT1L inhibitors, Table 8; cited from earlier work.
The mark [8] stands for this setting: 10 μM IBS008738 combined with 4 μM CHIR99021 and 1 mM VPA in growth factors versus EFI-C or EFI-CV controls.
Where [9] appears, read: Table 1, TAZ activators, concentration range in the assay.
Where [10] appears, read: TAZ activator alone, FIG. 3A, 3B.
Setting [11] is: 0-30 μM FHZ-000706 in a background of growth factors.
Where [12] appears, read: 10 μM FHZ-000706 + 4 μM CHIR99021 in growth factors compared to CHIR alone.

A value given as a limit tells only on which side of the number the result lay.

The values that follow come from US20220160664A1, “TAZ ACTIVATORS AND WNT AGONISTS FOR TREATING EAR DISORDERS” (Frequency Therapeutics, Inc., priority 2019, published 2022).

Sequence of GSK-3 alpha (P49840 whole entry): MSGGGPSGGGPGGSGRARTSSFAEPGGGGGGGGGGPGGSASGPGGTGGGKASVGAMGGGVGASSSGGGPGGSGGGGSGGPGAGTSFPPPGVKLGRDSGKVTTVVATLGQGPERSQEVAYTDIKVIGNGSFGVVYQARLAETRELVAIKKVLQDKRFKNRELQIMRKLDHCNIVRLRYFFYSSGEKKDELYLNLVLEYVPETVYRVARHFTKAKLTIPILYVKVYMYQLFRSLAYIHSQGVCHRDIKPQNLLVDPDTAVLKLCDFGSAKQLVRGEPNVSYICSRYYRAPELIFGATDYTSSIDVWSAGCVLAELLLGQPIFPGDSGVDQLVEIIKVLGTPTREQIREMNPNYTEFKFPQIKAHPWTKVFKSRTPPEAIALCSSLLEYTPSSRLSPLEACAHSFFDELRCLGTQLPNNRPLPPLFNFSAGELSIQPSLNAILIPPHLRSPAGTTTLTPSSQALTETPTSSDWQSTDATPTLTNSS
Sequence of TAZ (Q9GZV5 whole entry): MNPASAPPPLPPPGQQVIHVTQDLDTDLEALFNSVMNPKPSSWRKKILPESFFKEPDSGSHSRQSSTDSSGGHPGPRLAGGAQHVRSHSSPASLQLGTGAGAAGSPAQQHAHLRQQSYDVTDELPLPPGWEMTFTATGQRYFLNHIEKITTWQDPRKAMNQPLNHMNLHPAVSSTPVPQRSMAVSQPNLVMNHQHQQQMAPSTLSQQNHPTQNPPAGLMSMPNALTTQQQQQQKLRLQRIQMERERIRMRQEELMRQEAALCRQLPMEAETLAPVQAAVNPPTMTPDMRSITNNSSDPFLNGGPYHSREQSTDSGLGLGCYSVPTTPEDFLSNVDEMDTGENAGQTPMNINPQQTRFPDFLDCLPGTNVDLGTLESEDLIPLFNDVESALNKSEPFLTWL
Sequence of DOT1L (Q8TEK3 whole entry, species assumed): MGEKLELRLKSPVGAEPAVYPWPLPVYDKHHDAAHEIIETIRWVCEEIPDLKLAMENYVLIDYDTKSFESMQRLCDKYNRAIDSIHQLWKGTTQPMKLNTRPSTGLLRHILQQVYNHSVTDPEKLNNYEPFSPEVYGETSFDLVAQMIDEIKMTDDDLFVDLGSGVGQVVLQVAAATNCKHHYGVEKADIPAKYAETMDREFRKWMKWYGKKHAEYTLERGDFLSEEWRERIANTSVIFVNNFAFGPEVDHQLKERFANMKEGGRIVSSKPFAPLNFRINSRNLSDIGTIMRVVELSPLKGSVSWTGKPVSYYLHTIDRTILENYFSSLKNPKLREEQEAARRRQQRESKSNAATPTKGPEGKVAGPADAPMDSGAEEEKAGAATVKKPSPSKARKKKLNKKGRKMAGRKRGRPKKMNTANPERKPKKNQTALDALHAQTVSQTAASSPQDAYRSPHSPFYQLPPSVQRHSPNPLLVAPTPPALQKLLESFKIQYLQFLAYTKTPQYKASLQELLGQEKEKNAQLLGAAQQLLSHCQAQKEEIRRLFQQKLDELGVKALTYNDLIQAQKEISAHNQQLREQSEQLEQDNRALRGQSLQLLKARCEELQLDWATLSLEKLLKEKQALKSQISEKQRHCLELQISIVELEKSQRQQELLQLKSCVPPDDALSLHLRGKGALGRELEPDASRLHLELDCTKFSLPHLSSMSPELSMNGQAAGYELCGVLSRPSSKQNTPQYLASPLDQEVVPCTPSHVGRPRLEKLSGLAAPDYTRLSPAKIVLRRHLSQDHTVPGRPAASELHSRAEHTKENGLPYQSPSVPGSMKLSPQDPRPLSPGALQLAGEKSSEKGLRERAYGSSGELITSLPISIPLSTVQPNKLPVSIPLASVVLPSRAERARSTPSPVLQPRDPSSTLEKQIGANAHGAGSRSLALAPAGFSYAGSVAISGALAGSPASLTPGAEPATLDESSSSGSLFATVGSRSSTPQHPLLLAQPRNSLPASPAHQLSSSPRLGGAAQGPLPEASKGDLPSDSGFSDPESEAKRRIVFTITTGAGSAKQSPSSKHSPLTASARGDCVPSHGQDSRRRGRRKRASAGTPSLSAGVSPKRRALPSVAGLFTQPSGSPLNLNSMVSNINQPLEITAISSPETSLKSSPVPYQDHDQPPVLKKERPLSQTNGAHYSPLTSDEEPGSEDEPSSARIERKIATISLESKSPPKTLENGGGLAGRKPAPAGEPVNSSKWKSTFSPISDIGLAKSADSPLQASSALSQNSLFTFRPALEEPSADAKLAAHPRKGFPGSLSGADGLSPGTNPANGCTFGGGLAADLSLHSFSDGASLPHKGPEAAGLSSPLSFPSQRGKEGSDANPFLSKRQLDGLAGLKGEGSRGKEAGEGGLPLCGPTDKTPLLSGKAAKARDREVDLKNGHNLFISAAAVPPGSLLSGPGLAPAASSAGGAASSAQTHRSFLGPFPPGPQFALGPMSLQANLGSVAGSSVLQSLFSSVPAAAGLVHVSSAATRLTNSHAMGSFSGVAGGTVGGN

Consider `CC(C)N(C[C@H]1O[C@@H](n2cnc3c(N)ncnc32)[C@H](O)[C@@H]1O)[C@H]1C[C@@H](CCc2nc3cc(C(C)(C)C)ccc3[nH]2)C1` [pinometostat], for which, in data set [1] (Table 8, in brackets under the ng/mL range), the “Human In Vivo Conc: Total plasma Css” value is on record as “(1.42-2.94 uM)”. Moreover, in data set [1], the “Human In Vivo Conc” value is “(1-10 uM)”.
For the compound `C=CCNc1nc(N)c(C(=O)c2ccc(Cl)s2)s1` [IBS008738, reference compound], in data set [2], the “enrichment of Lgr5+ progenitor cells” value is given as “enriched” and the “proliferation of Lgr5+ progenitor cells” value is “proliferate”. In data set [3] (10 μM IBS008738 + 4 μM CHIR99021 in growth factors (50 ng/mL EGF, bFGF, IGR1) versus EFI-C or EFI-CV controls), the “Lgr5 GFP(+) cell count (progenitor cell proliferation), FIG. 1A” value is reported as “enhances”. Besides, the “Lgr5 GFP(+) cell proliferation percentage (enrichment), FIG. 1B” value in data set [3] (10 μM IBS008738 + 4 μM CHIR99021 in growth factors versus EFI-C or EFI-CV controls) is “enhances”. For the same compound, in data set [3] (setting [8]), the “Lgr5 GFP(+) cell count (progenitor cell proliferation), FIG. 2A” value is given as “does not enhance” and the “Lgr5 GFP(+) cell proliferation percentage (enrichment), FIG. 2B” value is given as “enhances”. In addition, the “Lgr5+ Assay” value in data set [3] (setting [9]) is 1.1 to 30 µM.
The Cmax is the highest concentration seen after dosing. For `N[C@@H]1C[C@H]1c1ccccc1` [TCP], the highest concentration (Cmax) in data set [1] (Table 9, in brackets under the ng/mL range, read-out: Human Plasma Conc.: Cmax) is 225 to 1500 nM. Besides, the “Human Plasma Conc.: Cmax” value in data set [1] (Table 9) is 30-200 ng/ml ng/mL.
For the compound `O=C1NC(=O)C(c2cnc3ccccn23)=C1c1cn2c3c(cc(F)cc13)CN(C(=O)N1CCCCC1)CC2` [LY2090314, 3-(9-fluoro-2-(piperidine-1-carbonyl)-1,2,3,4-tetrahydro-[1,4]diazepino[6,7,1-hi]indol-7-yl)-4-(imidazo[1,2-a]pyridin-3-yl)-1H-pyrrole-2,5-dione], the IC50 in data set [4] is 2.1 nM.
As for `CS(=O)(=O)c1ccc(-c2cnc(NCc3ccco3)n3cnnc23)cc1` [EED226, reference compound], in data set [3] (Table 7, result in words), the “Lgr5+ Assay” value is recorded as “Active”.
`O=C([O-])CCCc1ccccc1.[Na+]` [Na phenylbutyrate]: the Class selectivity entry in data set [5] (Table 5, HDAC class) is “Class I >”. Further, the IC50 in data set [5] (Table 5, HDAC Inhib 1, 2, 3, 8, kind of potency not given, read-out: HDAC Potene) is 9000 to 16000 nM.
For `C=CCNc1nc(N)c(C(=O)c2ccc(F)s2)s1` [TT10], in data set [6], the “Lit Cell” value was 1 µM.
For the compound `CCCCc1nc2cc(-c3cccnc3)c(C)nc2n1Cc1ccc(-c2ccccc2-c2nn[nH]n2)cc1` [TM-25659], in data set [6], the “Lit Cell” value was 10 to 100 µM.
On to `CC(C)N(CCCNC(=O)Nc1ccc(C(C)(C)C)cc1)C[C@H]1O[C@@H](n2ccc3c(N)ncnc32)[C@H](O)[C@@H]1O` [EPZ004777], for which the “Human In Vivo Conc” value in data set [1] is 0.1 to 45 µM.
In the case of `CCCc1cc(C)[nH]c(=O)c1CNC(=O)c1cc(-c2ccc(N3CCN(C(C)C)CC3)nc2)cc2c1cnn2C(C)C` [UN C1999, reference compound], the “Lgr5+ Assay” value in data set [3] (Table 7, result in words) is “Active”.
Take `c1ccc([C@@H]2C[C@H]2NC2CCNCC2)cc1` [GSK-LSD1]: the “Lgr5+ Assay” value in data set [3] (Table 9, with <= the upper end of a range printed over two lines) was ≤ 50 µM.
`CC(C)N(CCCNC(=O)Nc1ccc(C(C)(C)C)cc1)C[C@H]1O[C@@H](n2cc(Br)c3c(N)ncnc32)[C@H](O)[C@@H]1O` [SGC0946]: in data set [7], the “Lit Cell” value is 10 mM. For the same compound, the “Lgr5+ Assay” value in data set [3] (concentration range, Table 8) lay within 0.6 to 5 µM. Also, the “Human In Vivo Conc” value in data set [1] is listed as 0.1-5 μM uM.
As for `Cc1ccc(-n2cnc(N)c2C(=O)c2ccccc2)cc1` [FHZ-000706], in data set [2], the “enrichment of Lgr5+ progenitor cells” value is listed as “enriched” and the “proliferation of Lgr5+ progenitor cells” value was “proliferate”. In addition, in data set [2] (setting [10]), the “enrichment of cochlear progenitor cells” value was “does not promote” and the “proliferation of cochlear progenitor cells” value is “does not promote”. Further, in data set [3] (setting [11]), the “Lgr5 GFP(+) cell area (enrichment), FIG. 3B” value is given as “does not enrich” and the “Lgr5 GFP(+) cell area (proliferation), FIG. 3A” value is “does not proliferate”. In addition, in data set [3] (setting [12]), the “Lgr5 GFP(+) cell area (proliferation), FIG. 4A” value is reported as “enhances” and the “Lgr5 GFP(+) cell area percentage (enrichment), FIG. 4B” value is listed as “enhances”. Besides, the “Lgr5+ Assay” value in data set [3] (setting [9]) was in the range of 1 to 100 µM.
For the compound `N#Cc1ccc2[nH]c(O)c(-c3ccc(CN4CCOCC4)cn3)c2c1` [AZD 1080], in data set [4], the IC50 is 6.9 nM.
